The values that follow come from US9464082B2, “Aryl and arylalkyl substituted pyrazolyl and pyrimidinyl tricyclic enones as antioxidant inflammation modulators” (AbbVie Inc., priority 2014, dated 2016).

The subject of the assay is IFNγ-Induced NO Production. The assay is described as follows: Nitric Oxide Suppression Assay (Suppression of IFNγ-Induced NO Production). It counts as cell-based. The note with it: RAW264.7; RAW 264.7 mouse macrophage cells; 2 hour pre-treatment with compound (3 μM to 0.3 nM, 10 point curve); 20 ng/mL interferon gamma, ~18 hour; Griess detection; n=2-3 in duplicates. The gist of the method: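 Mouse RAW 264.7 macrophages pre-treated 2 h at 37 °C with compound (3 μM to 0.3 nM, 10 points; DMSO ≤1%), then stimulated with 20 ng/mL interferon gamma for ~18 h. Supernatant nitrite measured by Griess reaction, absorbance 520–550 nm. IC50 from curve fit of signal normalised to IFNγ alone, mean n=2-3 in duplicate.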
With `Cc1nc(-c2ccncc2)c2c(n1)[C@@]1(c3ccccc3)C=C(C#N)C(=O)[C@@H](C)[C@@H]1CC2` [Example 27, (6aS,7S,10aR)-2,7-dimethyl-8-oxo-10a-phenyl-4-(pyridin-4-yl)-5,6,6a,7,8,10a-hexahydrobenzo[h]quinazoline-9-carbonitrile], the IC50 came to 5.9 nM.

As to `Cc1nc(-c2cnn(C)c2)c2c(n1)[C@@]1(c3ccccc3)C=C(C#N)C(=O)[C@@H](C)[C@@H]1CC2` [Example 35, (6aS,7S,10aR)-2,7-dimethyl-4-(1-methyl-1H-pyrazol-4-yl)-8-oxo-10a-phenyl-5,6,6a,7,8,10a-hexahydrobenzo[h]quinazoline-9-carbonitrile], the IC50 was determined as 4.86 nM.

With `C[C@@H]1C(=O)C(C#N)=C[C@]2(c3ccccc3)c3nc(-c4c(F)cccc4F)ncc3CC[C@@H]12` [Example 74, (6aS,7S,10aR)-2-(2,6-difluorophenyl)-7-methyl-8-oxo-10a-phenyl-5,6,6a,7,8,10a-hexahydrobenzo[h]quinazoline-9-carbonitrile], the IC50 was 9.26 nM.

On to `C[C@@H]1C(=O)C(C#N)=C[C@]2(c3ccccc3)c3n[nH]c(-c4ccc(NS(C)(=O)=O)cc4)c3CC[C@@H]12` [Example 112, N-{4-[(5aS,6S,9aR)-8-cyano-6-methyl-7-oxo-9a-phenyl-4,5,5a,6,7,9a-hexahydro-2H-benzo[g]indazol-3-yl]phenyl}methanesulfonamide], for which the IC50 came out at 66.4 nM.

For `C[C@@H]1C(=O)C(C#N)=C[C@]2(c3ccccc3)c3c(cnn3Cc3ccccc3)CC[C@@H]12` (single isomer, unassigned) [Example 57], the IC50 is 22 nM.

Regarding `C[C@@H]1C(=O)C(C#N)=C[C@]2(c3ccccc3)c3nn(C(=O)Nc4cccnc4)cc3CC[C@@H]12` [Example 48, (5aS,6S,9aR)-8-cyano-6-methyl-7-oxo-9a-phenyl-N-(pyridin-3-yl)-4,5,5a,6,7,9a-hexahydro-2H-benzo[g]indazole-2-carboxamide], the IC50 was 40.1 nM.

As to `C[C@@H]1C(=O)C(C#N)=C[C@]2(c3ccccc3)c3n[nH]c(-c4cccc(NS(C)(=O)=O)c4)c3CCC12` (stereo partly drawn) [Example 113, N-{3-[(6S,9aR)-8-cyano-6-methyl-7-oxo-9a-phenyl-4,5,5a,6,7,9a-hexahydro-2H-benzo[g]indazol-3-yl]phenyl}methanesulfonamide], the IC50 was 43 nM.

Take `C[C@@H]1C(=O)C(C#N)=C[C@]2(c3ccc(C(=O)O)cc3)c3ncncc3CC[C@@H]12` [Example 66, 4-[(6aS,7S,10aR)-9-cyano-7-methyl-8-oxo-6,6a,7,8-tetrahydrobenzo[h]quinazolin-10a(5H)-yl]benzoic acid]: the IC50 stood at 809 nM.

As for `CC(=O)n1cc2c(n1)[C@@]1(c3ccccc3)C=C(C#N)C(=O)[C@@H](C)[C@@H]1CC2` [Example 28, (5aS,6S,9aR)-2-acetyl-6-methyl-7-oxo-9a-phenyl-4,5,5a,6,7,9a-hexahydro-2H-benzo[g]indazole-8-carbonitrile], the IC50 came to 39 nM.

As to `C[C@@H]1C(=O)C(C#N)=C[C@]2(c3ccccc3)c3nn(C)c(-c4cncnc4)c3CC[C@@H]12` [Example 177, (5aS,6S,9aR)-2,6-dimethyl-7-oxo-9a-phenyl-3-(pyrimidin-5-yl)-4,5,5a,6,7,9a-hexahydro-2H-benzo[g]indazole-8-carbonitrile], the IC50 worked out at 10.8 nM.

For the molecule `C[C@@H]1C(=O)C(C(N)=O)=C[C@]2(c3ccccc3)c3ncncc3CC[C@@H]12` [Example 131, (6aS,7S,10aR)-7-methyl-8-oxo-10a-phenyl-5,6,6a,7,8,10a-hexahydrobenzo[h]quinazoline-9-carboxamide], the IC50 came to 1390 nM.

Turning to `Cc1nc(-c2ccc(-c3[nH]ncc3Br)cc2)c2c(n1)[C@@]1(c3ccc(F)cc3)C=C(C#N)C(=O)[C@@H](C)[C@@H]1CC2` [Example 81, (6aS,7S,10aR)-4-[4-(4-bromo-1H-pyrazol-5-yl)phenyl]-10a-(4-fluorophenyl)-2,7-dimethyl-8-oxo-5,6,6a,7,8,10a-hexahydrobenzo[h]quinazoline-9-carbonitrile], the IC50 was determined as 35 nM.

In the case of `Cc1nc(-c2ccc(O)nc2)c2c(n1)[C@@]1(c3ccccc3)C=C(C#N)C(=O)[C@@H](C)[C@@H]1CC2` [Example 133, (6aS,7S,10aR)-4-(6-hydroxypyridin-3-yl)-2,7-dimethyl-8-oxo-10a-phenyl-5,6,6a,7,8,10a-hexahydrobenzo[h]quinazoline-9-carbonitrile], the IC50 turned out to be 311 nM.

As to `COc1nc(OC)c2c(n1)[C@@]1(c3ccccc3)C=C(C#N)C(=O)[C@@H](C)[C@@H]1CC2` [Example 103, (6aS,7S,10aR)-2,4-dimethoxy-7-methyl-8-oxo-10a-phenyl-5,6,6a,7,8,10a-hexahydrobenzo[h]quinazoline-9-carbonitrile], the IC50 is 4.4 nM.

In the case of `C[C@@H]1C(=O)C(C#N)=C[C@]2(c3ccccc3)c3nn(C)c(-c4cccc(Br)c4)c3CC[C@@H]12` [Example 148, (5aS,6S,9aR)-3-(3-bromophenyl)-2,6-dimethyl-7-oxo-9a-phenyl-4,5,5a,6,7,9a-hexahydro-2H-benzo[g]indazole-8-carbonitrile], the IC50 was determined as 31.5 nM.

Regarding `COc1nc(-c2ccccc2)nc2c1CC[C@H]1[C@H](C)C(=O)C(C#N)=C[C@]21c1ccccc1` (racemic) [Example 8, rac-(6aS,7S,10aR)-4-methoxy-7-methyl-8-oxo-2,10a-diphenyl-5,6,6a,7,8,10a-hexahydrobenzo[h]quinazoline-9-carbonitrile], the IC50 was determined as 96.3 nM.

Take `C[C@@H]1C(=O)C(C#N)=C[C@]2(c3ccccc3)c3nc(C(C)(C)C)ncc3CC[C@@H]12` [Example 85, (6aS,7S,10aR)-2-tert-butyl-7-methyl-8-oxo-10a-phenyl-5,6,6a,7,8,10a-hexahydrobenzo[h]quinazoline-9-carbonitrile]: the IC50 turned out to be 33.8 nM.

In the case of `Cc1nc(-c2cnn(CCO)c2)c2c(n1)[C@@]1(c3ccccc3)C=C(C#N)C(=O)[C@@H](C)[C@@H]1CC2` [Example 127, (6aS,7S,10aR)-4-[1-(2-hydroxyethyl)-1H-pyrazol-4-yl]-2,7-dimethyl-8-oxo-10a-phenyl-5,6,6a,7,8,10a-hexahydrobenzo[h]quinazoline-9-carbonitrile], the IC50 is 2.27 nM.

Regarding `C[C@@H]1C(=O)C(C#N)=C[C@]2(c3ccccc3)c3nn(S(=O)(=O)c4ccccc4)cc3CC[C@@H]12` [Example 41, (5aS,6S,9aR)-6-methyl-7-oxo-9a-phenyl-2-(phenylsulfonyl)-4,5,5a,6,7,9a-hexahydro-2H-benzo[g]indazole-8-carbonitrile], the IC50 was determined as 1180 nM.

Turning to `Cc1nc(-c2cccc3c(Br)n[nH]c23)c2c(n1)[C@@]1(c3ccc(F)cc3)C=C(C#N)C(=O)[C@@H](C)[C@@H]1CC2` [Example 92, (6aS,7S,10aR)-4-(3-bromo-1H-indazol-7-yl)-10a-(4-fluorophenyl)-2,7-dimethyl-8-oxo-5,6,6a,7,8,10a-hexahydrobenzo[h]quinazoline-9-carbonitrile], the IC50 turned out to be 31.7 nM.

On to `C[C@@H]1C(=O)C(C#N)=C[C@]2(Cc3ccccc3)c3nn(C)c(-c4ccccc4)c3CC[C@@H]12` (racemic) [Example 164, rac-(5aS,6S,9aR)-9a-benzyl-2,6-dimethyl-7-oxo-3-phenyl-4,5,5a,6,7,9a-hexahydro-2H-benzo[g]indazole-8-carbonitrile], for which the IC50 came out at 65 nM.

In the case of `C[C@@H]1C(=O)C(C#N)=C[C@]2(c3ccccc3)c3c(c(-c4cncnc4)nn3C)CC[C@@H]12` [Example 179, (5aS,6S,9aR)-1,6-dimethyl-7-oxo-9a-phenyl-3-(pyrimidin-5-yl)-4,5,5a,6,7,9a-hexahydro-1H-benzo[g]indazole-8-carbonitrile], the IC50 is 1.24 nM.

Consider `Cc1nc(-c2cccc(-c3ccc(O)cc3)c2)c2c(n1)[C@@]1(c3ccccc3)C=C(C#N)C(=O)[C@@H](C)[C@@H]1CC2` [Example 119, (6aS,7S,10aR)-4-(4′-hydroxybiphenyl-3-yl)-2,7-dimethyl-8-oxo-10a-phenyl-5,6,6a,7,8,10a-hexahydrobenzo[h]quinazoline-9-carbonitrile], for which the IC50 is 6.5 nM.

Take `COC(=O)c1ccc(-c2cccc(-c3nc(C)nc4c3CC[C@H]3[C@H](C)C(=O)C(C#N)=C[C@]43c3ccccc3)c2)cc1` [Example 134, methyl 3′-[(6aS,7S,10aR)-9-cyano-2,7-dimethyl-8-oxo-10a-phenyl-5,6,6a,7,8,10a-hexahydrobenzo[h]quinazolin-4-yl]biphenyl-4-carboxylate]: the IC50 is 6.9 nM.

Consider `C[C@@H]1C(=O)C(C#N)=C[C@]2(c3ccccc3)c3nn(C)c(-c4cccc(-c5cn[nH]c5)c4)c3CC[C@@H]12` [Example 167, (5aS,6S,9aR)-2,6-dimethyl-7-oxo-9a-phenyl-3-[3-(1H-pyrazol-4-yl)phenyl]-4,5,5a,6,7,9a-hexahydro-2H-benzo[g]indazole-8-carbonitrile], for which the IC50 was found to be 3.27 nM.

`C[C@@H]1C(=O)C(C#N)=C[C@]2(c3ccccc3)c3nn(C)c(-c4ccnnc4)c3CC[C@@H]12` [Example 97, (5aS,6S,9aR)-2,6-dimethyl-7-oxo-9a-phenyl-3-(pyridazin-4-yl)-4,5,5a,6,7,9a-hexahydro-2H-benzo[g]indazole-8-carbonitrile]: the IC50 came to 15 nM.

As to `C[C@@H]1C(=O)C(C#N)=C[C@]2(c3ccc(F)cc3)c3nc(-c4cccnc4)ncc3CC[C@@H]12` [Example 51, (6aS,7S,10aR)-10a-(4-fluorophenyl)-7-methyl-8-oxo-2-(pyridin-3-yl)-5,6,6a,7,8,10a-hexahydrobenzo[h]quinazoline-9-carbonitrile], the IC50 turned out to be 6.14 nM.

As for `C[C@@H]1C(=O)C(C#N)=C[C@]2(c3ccccc3)c3nn(C)c(-c4cccc(-c5ccc(N(S(C)(=O)=O)S(C)(=O)=O)cc5)c4)c3CC[C@@H]12` [Example 152, N-{3′-[(5aS,6S,9aR)-8-cyano-2,6-dimethyl-7-oxo-9a-phenyl-4,5,5a,6,7,9a-hexahydro-2H-benzo[g]indazol-3-yl]biphenyl-4-yl}-N-(methylsulfonyl)methanesulfonamide], the 50% inhibitory concentration (IC50) is 11.5 nM.

Broadly, the IC50 is the midpoint of a concentration-inhibition curve.
